What was measured:
[1] = molecular target: Polymerase acidic protein (Influenza A virus (A/Puerto Rico/8/1934(H1N1)), UniProt P03433); test: Inhibition of 8-histidine tagged influenza virus H1N1 N-terminal PA endonuclease expressed in Escherichia coli BL21 cells using single-stranded 5'-FAM fluorophore/3'-TAMRA quencher)-labeled 17-mer ssDNA-oligomer substrate measured over 45 mins by FRET analysis
MDCK = test: Cytotoxicity against MDCK cells after 48 hrs by cell-titre glo luminescence assay; format: cell-based, Canis lupus familiaris; details: dog
Influenza A virus = test: Antiviral activity against influenza A virus H1N1 ATCC VR-1737 infected in MDCK cells after 48 hrs by hemagglutination assay; format: functional, organism-based; details: H1N1 ATCC VR-1737, MDCK

Cc1c(O)c(=O)ccn1-c1ccccc1
IC50 [1]: 18 µM

O=c1cc(CNCc2ccccc2)occ1O
IC50 [1]: 2.7 µM

CN(Cc1cc(=O)c(O)cn1-c1ccc(-c2nnn[nH]2)cc1)c1ccc(Cl)cc1
CC50 (MDCK): 280 µM

CS(=O)(=O)NCc1cc(=O)c(O)co1
IC50 [1]: 4.8 µM

CN(Cc1cc(=O)c(O)co1)c1ccc(F)cc1
IC50 [1]: 1.8 µM

Cc1occ(O)c(=O)c1C(=O)NCCc1ccccc1
IC50 [1]: 11.3 µM

Cc1c(O)c(=O)ccn1C1CCCCC1
IC50 [1]: 14 µM

CN(Cc1cc(=O)c(O)co1)c1cccc(F)c1
IC50 [1]: 3.2 µM

Cc1cc(=O)c(O)cn1-c1ccc(-c2ccccc2)cc1
IC50 [1]: 1.3 µM

COc1cccc(CNC(=O)c2c(C)occ(O)c2=O)c1
IC50 [1]: 22.1 µM

CCOC(=O)c1c(C)n(-c2ccc(Oc3ccccc3)cc2)cc(O)c1=O
IC50 [1]: 5.2 µM

Cc1cc(=O)c(O)cn1C1CCOCC1
IC50 [1]: 0.73 µM

CN(Cc1cc(=O)c(O)co1)c1ccncc1
IC50 [1]: > 100 µM
pIC50 [1]: < 4

CCOC(=O)c1c(C)n(-c2ccccc2)cc(O)c1=O
IC50 [1]: 5.3 µM

O=C(O)/C(O)=C/C(=O)C1(Cc2ccc(Cl)cc2)CCN(Cc2ccccc2)CC1
EC50 (Influenza A virus): 9 µM
CC50 (MDCK): 284 µM

Reference: ChEMBL document CHEMBL4477214
